Drawing on patent publication US20030134859A1 (SANKYO COMPANY, LIMITED, priority 2000, published 2003), this text covers IC50 and activity for 9 compounds.

What all share (type): cell-based
One assay deals with T1, human PPAR γ 2 (Homo sapiens, UniProt P37231).
T1 construct: expressed in transfected cells; host or cells: human osteosarcoma MG63, transiently co-transfected with pSG5-hPPARg and the reporter pGV-P2-PPRE
T1 sequence (P37231 1-505): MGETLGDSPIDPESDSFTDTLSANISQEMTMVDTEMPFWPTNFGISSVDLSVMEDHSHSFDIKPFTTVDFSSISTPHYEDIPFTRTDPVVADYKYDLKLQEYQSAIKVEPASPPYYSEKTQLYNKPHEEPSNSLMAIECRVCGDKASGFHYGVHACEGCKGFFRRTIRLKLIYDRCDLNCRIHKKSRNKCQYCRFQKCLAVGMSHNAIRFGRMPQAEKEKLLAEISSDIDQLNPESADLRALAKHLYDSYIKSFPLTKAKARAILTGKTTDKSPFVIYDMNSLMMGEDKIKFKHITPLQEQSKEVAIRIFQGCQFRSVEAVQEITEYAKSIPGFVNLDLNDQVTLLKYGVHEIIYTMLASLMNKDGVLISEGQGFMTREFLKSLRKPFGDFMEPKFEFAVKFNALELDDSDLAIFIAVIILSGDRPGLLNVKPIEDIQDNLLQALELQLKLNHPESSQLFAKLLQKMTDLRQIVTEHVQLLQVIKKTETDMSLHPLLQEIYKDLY
Description: Inhibitory activity against PPAR γ transcription in the presence of agonist compound A, luciferase reporter. As to conditions: in the presence of 10 nM compound A (agonist); MG63 cells transfected with pSG5-hPPARg and pGV-P2-PPRE; 24 hr. The text has this:
The primers of the polymerase chain reaction (hereinafter “PCR”) were designed according to the gene sequence of human PPAR γ 2 (GenBANK accession No. D83233). […] For this, 2 kinds of polynucleotides shown in the sequence numbers 1 and 2 in the sequence table described below (hereinafter “S1” and “AS1”, respectively) were used as PCR primers.
In order to determine transcriptional activity via PPAR γ, 2 kinds of polynucleotides represented in sequence numbers 3 and 4 in the sequence table described below (hereinafter “S2” and “AS2”, respectively) were used for construction of the reporter plasmid having PPAR responsive element. The DNA fragment inserted was designed based on the gene sequence in the promoter region of rat acylCo-A oxidase (J. D. Tugwood, EMBO J., 11 (2), pp433-439 (1992)). For insertion of the DNA fragment into the reporter plasmid pGV-P2 (TOYO INK MFG CO., LTD), a NheI site and an XhoI site were added to the S2 and AS2, respectively.
Using cDNA library (Clontech) derived from human adipose tissue as a template, DNA oligomers S1 and AS1 that were synthesized in the procedure 1 as primers and Ex-Taq™ (TAKARA BIO INC.) as a thermostable DNA polymerase-PCR was carried out. […] Each cycle consisted of incubation at 94° C. for 1 min for denaturation of the template, then at 55° C. for 30 sec for annealing of DNA oligomers the PCR primer, and then at 72° C. for 30 sec for extension of the chain. The obtained DNA fragments with approximately 1500 base pairs were digested at the Bgl II sites and were inserted into BamHI sites of pSG5. Thus a human PPAR γ expression plasmid named pSG5-hPPAR g was obtained.
Vector pGV-P2 digestion products was prepared by digestion using the restriction enzymes, NheI and XhoI, and purified by 1.0% agarose-gel electrophoresis. The DNA oligomers, S2 and AS2 obtained in Procedure 2, were mixed together and were incubated in a hot bath at 94° C. for 1 min. After the annealing was partially broken, they were further incubated at 25° C. for 1 hr. Thus double-stranded DNA with annealing of S2 and AS2 was formed. Then, the terminus of the double-stranded DNA with annealing of S2 and AS2 was phosphorylated with DNA polynucleotide kinase (TOYOBO CO., LTD). After that, it was ligated to the pGV-P2 digestion products which were prepared previously using the NheI site and XhoI site. Thus the reporter plasmid pGV-P2-PPRE was obtained.
Using the plasmid obtained by the procedures 3 and 4, transformation of Escherichia coli HB-101 strain was carried out by conventional methods. HB-101 strain having the plasmid was incubated in L-broth medium (containing 10 g of trypton (Difco), 5 g of yeast extract (Difco), 5 g of sodium chloride in 1 L of aqueous solution) containing 100 μg/ml of ampicillin at 37° C. for 17 hrs. Then, each plasmid was purified by the alkaline-SDS method and employed for the gene transfection to mammalian cells. After mixing the pSG5-hPPARg, PGV-P2-PPRE and LipofectAMINE reagent (GIBCO BRL), the human osteosarcoma MG63 was transiently transfected. Then the cells were recovered. The recovered cells were plated on a 96-well plate so as to be 30,000 cells/well and cultured in a CO2 incubator (NAPCO) at 37° C. for 24 hr under the condition of 5% CO2, 95%-RH.
Ten (10) nM of the following compound A (although compound A is described here as a representative compound, the compound is not limited to compound A, if the compound exerts a PPAR r agonistic activity) and various concentrations of the test compound were added to culturing medium of the cells prepared in the Procedure 5.

Assay [1] has as its system Mouse preadipocyte strain 3T3-L1. Description: Inhibition of differentiation as an indication of acetic acid uptake. The settings on record: Mus musculus, 3T3-L1, 0.1 μM test substance, control (0.01% dimethylsulfoxide) = 100%, read-out: Rate of Uptake (%) of [2-14C] acetic acid. On the procedure:
As the basal medium, Dulbecco's modified Eagle's (DEM) medium (NISSUI PHARMACEUTICAL CO., LTD) was used. […] All culturing in the present Test Example was carried out in a CO2 incubator at 37° C. and 10% CO2 concentration.
The successively cultured 3T3-L1 cells were inoculated in a Biocoat Collagen I 96-well white/clear plate (Becton Dickinson and Co.) at a concentration of 4,900 cells/well, and were cultured in the basal medium containing added 10% (v/v) inactivated bovine fetal serum (FBS) for 10 days.
The medium was replaced with a differentiation-inducing medium in which inactivated FBS (final concentration: 5%), insulin (Sigma-Aldrich Japan K. K., final concentration: 10 μg/mL), isobutyl methyl xanthine (Aldrich K. K., final concentration: 0.5 mM) and dexamethazone (final concentration: 1 μM) were added so as to be at the final concentrations indicated in the parentheses. The cells were divided in the following 2 groups and were cultured for 4 days; 1) in the presence of 0.01% (v/v) dimethylsulfoxide, and 2) in the presence of 0.01% (v/v) dimethylsulfoxide in which was dissolved 1 mM of the test substance (final concentration of 0.1 μM). Then, the medium was further replaced with a maintenance medium in which inactivated […] and insulin were added to the base medium so as to be at final concentrations of 5% and 100 ng/mL, respectively, and the cells were cultured for 2 days.
The inhibitory activity of the test compound against cell differentiation was assayed by using uptake of [2-^14C] acetic acid into the cultured cells as an indicator. […] Then the cells were further incubated with the newly prepared medium for 1 hr. After washing the well with PBS (−), the cells were dried. To these wells, 100 μL/well of a scintillation cocktail (Hewlett-Packard Co., MICROSCINT-20 PACKARD) were added and their radioactivities were determined with a Packard TopCont microplate Scintillation Counter (Hewlett-Packard Co., PACKARD) and the uptake level of [2-^14C] acetic acid into the cultured cell was calculated.
On the basis of the calculated uptake level of [2-^14C] acetic acid into the cultured cells, the relative uptake level of [2-^14C] acetic acid in the group treated with the test compound was calculated against the uptake level of [2-^14C] acetic acid in the presence of 0.01% (v/v) dimethylsulfoxide solution described in 1) (100%).
Value=Uptake Level (cpm) of [2-^14C] Acetic Acid in the Presence of the Test Substance
Control=Uptake Level (cpm) of [2-^14C] Acetic Acid in the Control Group (0.01% dimethylsulfoxide)
Uptake Rate (%) of [2-^14C] Acetic Acid=100×[Value]/[Control]

A further assay deals with Rat white adipocytes. The experiment in a line: Inhibition of the differentiation of adipocytes (Oil Red O). As to conditions: Rattus norvegicus, Adipocyte, 120 h, 100 nM test compound; 5 days; Oil Red O ABS550; control = 100%, blank = 0%; Table 3; read-out: Rate of Differentiation (%). A digest of the protocol:
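Rat white preadipocytes, 5,000 cells/well, given differentiation medium with compound at 100 nM final (0.1% DMSO) for 5 days at 37 °C. Lipid stained with Oil Red O, eluted in DMSO, read at 550 nm; differentiation % relative to DMSO control (100%) and blank (0%).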

Where a name gives a salt, the structure may show the parent alone.

The term IC50 denotes the concentration needed to halve the response being measured.

As for `Cc1nccc(-c2cccc(NC(=O)c3cc([N+](=O)[O-])ccc3Cl)c2)n1` [Example 112, N-[3-(2-Methylpyrimidin-4-yl)phenyl]-(2-chloro-5-nitrophenyl)carboxamide], at human PPAR γ 2, the IC50 came to 14 nM. Moreover, in assay [1], the activity at 0.1 µM stood at 82.3%.
With `CCS(=O)(=O)Nc1ccc(NC(=O)c2cc([N+](=O)[O-])ccc2Cl)cc1` [Example 129, N-(4-Ethanesulfonylaminophenyl)-(2-chloro-5-nitrophenyl)carboxamide], on human PPAR γ 2, the half-inhibitory concentration (IC50) was 26 nM.
On the same count and under the same terms, under `O=C(Nc1ccc(C(=O)N2CCOCC2)cc1)c1cc([N+](=O)[O-])ccc1Cl` [Example 158, N-[4-(Morpholin-4-ylcarbonyl)phenyl]-(2-chloro-5-nitrophenyl)carboxamide] stands 82 nM.
`CCCCCCCCN(CCCCC)c1ccc(-c2ccc(NC(=O)c3cc([N+](=O)[O-])ccc3Cl)cc2)cc1` [Example 221, N-[4-[4-(N-Octyl-N-pentylamino)phenyl]phenyl]-(2-chloro-5-nitrophenyl)carboxamide mono-hydrochloride]: the concentration for half-maximal inhibition (IC50) on human PPAR γ 2 was found to be 34 nM. Further, the activity at 0.1 µM in the assay on Rat white adipocytes turned out to be 40.2%.
Take `O=C(Nc1ccc(N2CCN(C(=O)c3cccnc3)CC2)cc1)c1cc([N+](=O)[O-])ccc1Cl` [Example 227, N-[4-[4-(Pyridin-3-ylcarbonyl)piperazin-1-yl]phenyl]-2-(chloro-5-nitrophenyl)carboxamide]: on human PPAR γ 2, the IC50 came to 81 nM. Besides, the activity at 0.1 µM in the assay on Rat white adipocytes was found to be 39.7%.
The matching figures for `CC(O)c1ccc(NC(=O)c2cc([N+](=O)[O-])ccc2Cl)cc1` (stereo not shown) [Example 238, N-[4-(1-Hydroxyethyl)phenyl]-(2-chloro-5-nitrophenyl)carboxamide]: 9.3 nM and 64%.
The matching figures for `O=C(Nc1ccc(-c2ccc(NC(=S)Nc3cccnc3)cc2)cc1)c1cc([N+](=O)[O-])ccc1Cl` [Example 256, N-[4-[4-[(Pyridin-3-yl)aminothiocarbonylamino]phenyl]phenyl)-(2-chloro-5-nitrophenyl)carboxamide]: 12 nM and 38.2%.
The corresponding values for `O=C(NCCc1ccc(NC(=O)c2cc([N+](=O)[O-])ccc2Cl)cc1)Nc1ccccc1` [Example 268, N-[4-(2-Phenylaminocarbonylaminoethyl)phenyl]-(2-chloro-5-nitrophenyl)carboxamide] are 25 nM and 54.8%.
As for `O=C(Nc1ccc(CCNC(=S)Nc2ccccc2)cc1)c1cc([N+](=O)[O-])ccc1Cl` [Example 269, N-[4-(2-Phenylaminothiocarbonylaminoethyl)phenyl]-(2-chloro-5-nitrophenyl)carboxamide], the 50% inhibitory concentration (IC50) at human PPAR γ 2 is 30 nM. Also, the activity at 0.1 µM in the assay on Rat white adipocytes worked out at 52.9%.
